Calls of active or inactive are those of the source.
Experiments:
[1] = molecular target: T1, Carboxy-terminal domain RNA polymerase II polypeptide A small phosphatase 1 (Homo sapiens, UniProt Q9GZU7); experiment: inhibitors of CTDSP1, concentration-response testing, biochemical assay, absorbance-based, actives from ultra-high-throughput screening (AID 540297); assay type: functional
T1 sequence (Q9GZU7 whole entry): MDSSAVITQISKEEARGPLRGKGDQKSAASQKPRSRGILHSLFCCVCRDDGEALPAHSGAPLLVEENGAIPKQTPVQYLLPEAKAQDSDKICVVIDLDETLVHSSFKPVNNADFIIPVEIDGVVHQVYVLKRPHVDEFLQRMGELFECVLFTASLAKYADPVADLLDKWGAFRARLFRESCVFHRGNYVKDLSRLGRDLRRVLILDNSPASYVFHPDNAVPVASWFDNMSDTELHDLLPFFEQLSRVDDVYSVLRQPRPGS

Caspase-7 = Caspase-7 (Homo sapiens, UniProt P55210); experiment: human caspase-7 inhibitors, dose response, selectivity assay for caspase-6 inhibitor project, biochemical, DEVD-R110 fluorescence, cherry-pick (AID 743295)
Caspase-7, sequence (P55210 24-198 limits assumed): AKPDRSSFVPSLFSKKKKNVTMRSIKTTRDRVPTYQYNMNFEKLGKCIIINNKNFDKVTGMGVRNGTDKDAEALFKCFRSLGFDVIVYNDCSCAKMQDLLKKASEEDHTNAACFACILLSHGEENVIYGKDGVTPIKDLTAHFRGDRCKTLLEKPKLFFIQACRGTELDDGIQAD
Caspase-7, sequence (P55210 207-303 limits assumed): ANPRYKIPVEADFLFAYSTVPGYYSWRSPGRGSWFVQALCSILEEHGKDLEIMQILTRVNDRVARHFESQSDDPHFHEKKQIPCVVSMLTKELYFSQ

[2] = molecular target: Induced myeloid leukemia cell differentiation protein Mcl-1 (Homo sapiens, UniProt Q07820); assay type: functional
Induced myeloid leukemia cell differentiation protein Mcl-1, sequence (Q07820 whole entry): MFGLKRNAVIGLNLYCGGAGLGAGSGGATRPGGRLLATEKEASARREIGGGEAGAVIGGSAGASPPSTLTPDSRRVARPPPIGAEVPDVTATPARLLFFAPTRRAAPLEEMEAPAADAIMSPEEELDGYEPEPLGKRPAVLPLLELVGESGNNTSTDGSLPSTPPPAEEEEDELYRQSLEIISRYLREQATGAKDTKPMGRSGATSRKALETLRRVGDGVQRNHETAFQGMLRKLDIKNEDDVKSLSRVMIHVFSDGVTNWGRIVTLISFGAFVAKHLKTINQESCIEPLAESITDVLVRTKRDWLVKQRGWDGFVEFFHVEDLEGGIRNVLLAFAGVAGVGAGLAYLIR

Caspase-6 = molecular target: T2, Caspase-6 (Homo sapiens, UniProt P55212); experiment: human caspase-6 inhibitors, dose response, biochemical, VEID-R110 fluorescence, cherry-pick (AID 720632)
T2 sequence (P55212 whole entry): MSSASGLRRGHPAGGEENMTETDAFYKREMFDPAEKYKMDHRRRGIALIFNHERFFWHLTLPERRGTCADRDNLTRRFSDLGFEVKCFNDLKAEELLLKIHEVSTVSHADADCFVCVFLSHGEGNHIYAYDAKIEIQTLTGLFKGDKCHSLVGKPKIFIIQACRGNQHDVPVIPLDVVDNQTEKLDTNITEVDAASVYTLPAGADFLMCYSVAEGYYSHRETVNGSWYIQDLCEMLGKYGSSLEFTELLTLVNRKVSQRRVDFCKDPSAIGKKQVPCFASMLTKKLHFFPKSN

Protein skinhead-1 = molecular target: T3, Protein skinhead-1 (Caenorhabditis elegans, UniProt P34707); assay type: functional
T3 sequence (P34707 whole entry): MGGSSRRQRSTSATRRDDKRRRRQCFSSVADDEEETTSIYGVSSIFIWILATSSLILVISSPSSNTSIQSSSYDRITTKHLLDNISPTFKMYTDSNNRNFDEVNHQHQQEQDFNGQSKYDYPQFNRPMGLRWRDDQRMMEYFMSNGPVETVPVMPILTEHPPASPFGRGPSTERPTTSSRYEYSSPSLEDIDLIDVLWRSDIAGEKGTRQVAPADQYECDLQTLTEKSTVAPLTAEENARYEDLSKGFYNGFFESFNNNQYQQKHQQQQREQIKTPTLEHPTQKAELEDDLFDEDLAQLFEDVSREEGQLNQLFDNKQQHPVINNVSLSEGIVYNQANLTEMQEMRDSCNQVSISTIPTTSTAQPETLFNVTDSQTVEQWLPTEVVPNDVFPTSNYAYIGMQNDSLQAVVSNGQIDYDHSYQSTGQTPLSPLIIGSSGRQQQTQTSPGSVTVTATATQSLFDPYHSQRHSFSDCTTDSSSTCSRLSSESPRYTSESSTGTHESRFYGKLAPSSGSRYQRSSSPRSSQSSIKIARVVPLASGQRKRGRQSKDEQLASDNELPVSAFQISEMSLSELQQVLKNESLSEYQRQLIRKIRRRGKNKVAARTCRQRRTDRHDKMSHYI

[3] = molecular target: T4, Oxysterols receptor LXR-beta (Homo sapiens, UniProt P55055); assay type: functional, cell-based;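 further: Cell-based luminescence dose-response assay of agonist activity at LXR, run as a confirmatory counterscreen to a daf-12 agonist screen; HEK293 cells with Gal4-LXR fusion and GAL4-driven luciferase reporter; agonist potency from rising luciferase signal of a Gal4-LXR reporter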
T4 sequence (P55055 whole entry): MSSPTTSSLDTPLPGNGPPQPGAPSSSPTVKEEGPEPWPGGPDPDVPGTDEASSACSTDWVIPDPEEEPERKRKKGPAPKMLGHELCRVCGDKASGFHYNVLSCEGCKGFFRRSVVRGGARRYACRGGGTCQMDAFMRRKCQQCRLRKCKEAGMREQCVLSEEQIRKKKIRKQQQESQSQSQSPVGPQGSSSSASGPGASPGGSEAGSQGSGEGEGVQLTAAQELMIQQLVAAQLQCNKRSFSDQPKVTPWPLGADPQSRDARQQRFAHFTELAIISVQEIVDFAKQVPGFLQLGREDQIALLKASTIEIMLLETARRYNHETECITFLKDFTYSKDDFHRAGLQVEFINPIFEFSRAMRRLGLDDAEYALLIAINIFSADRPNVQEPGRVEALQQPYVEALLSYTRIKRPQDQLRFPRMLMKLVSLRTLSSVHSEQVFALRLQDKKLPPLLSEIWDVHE

H4 = experiment: Luminescence Cell-Based Dose Response HTS to Identify Activators of 5'UTR Stem-Loop Driven Prion Protein mRNA Translation in H4 Neuroglioblastoma Cells. [Related pubchem assays: 1829 (Project Summary), 1814 (Primary HTS)]; assay type: functional; settings: Homo sapiens
[4] = Luminescence Cell-Based Dose Response HTS to Identify Activators of Luciferase Translation or Activity in H4 […] Cells. [Related pubchem assays: 1829 (Project Summary), 1814 (Primary HTS)]; assay type: functional
[5] = molecular target: Glucose-6-phosphate 1-dehydrogenase (Homo sapiens, UniProt P11413); experiment: human G6PD enzyme inhibitors, dose response, selectivity assay for P. falciparum G6PD inhibitor project, biochemical, fluorescence (AID 504792); assay type: functional
Glucose-6-phosphate 1-dehydrogenase, sequence (P11413 whole entry): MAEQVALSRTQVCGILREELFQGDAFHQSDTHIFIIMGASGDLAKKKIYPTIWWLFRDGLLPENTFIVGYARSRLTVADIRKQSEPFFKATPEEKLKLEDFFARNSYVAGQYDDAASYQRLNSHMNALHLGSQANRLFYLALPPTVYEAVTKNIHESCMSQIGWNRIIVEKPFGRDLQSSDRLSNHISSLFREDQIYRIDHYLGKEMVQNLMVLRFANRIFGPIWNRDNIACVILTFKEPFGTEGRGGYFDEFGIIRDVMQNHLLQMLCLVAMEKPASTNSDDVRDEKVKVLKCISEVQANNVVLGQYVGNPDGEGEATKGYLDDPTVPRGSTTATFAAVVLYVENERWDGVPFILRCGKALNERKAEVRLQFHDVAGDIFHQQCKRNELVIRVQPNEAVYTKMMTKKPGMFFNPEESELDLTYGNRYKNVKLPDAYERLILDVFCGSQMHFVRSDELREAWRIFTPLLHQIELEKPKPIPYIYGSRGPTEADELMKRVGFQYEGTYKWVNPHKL

fMet-Leu-Phe receptor = fMet-Leu-Phe receptor (Homo sapiens, UniProt P21462); experiment: FPR ligands, dose response (AID 519); assay type: functional
fMet-Leu-Phe receptor, sequence (P21462 whole entry): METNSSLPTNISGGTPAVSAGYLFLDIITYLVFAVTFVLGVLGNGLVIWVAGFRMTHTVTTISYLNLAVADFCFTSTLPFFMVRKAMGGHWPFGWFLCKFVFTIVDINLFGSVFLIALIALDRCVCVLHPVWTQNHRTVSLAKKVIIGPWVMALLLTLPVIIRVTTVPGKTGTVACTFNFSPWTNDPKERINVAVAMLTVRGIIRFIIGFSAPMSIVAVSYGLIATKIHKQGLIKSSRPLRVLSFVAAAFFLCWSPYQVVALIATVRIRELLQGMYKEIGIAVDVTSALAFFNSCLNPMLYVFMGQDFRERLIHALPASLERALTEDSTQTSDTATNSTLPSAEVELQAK

Cytochrome P450 2C9 = Cytochrome P450 2C9 (Homo sapiens, UniProt P11712)
Cytochrome P450 2C9, sequence (P11712 whole entry): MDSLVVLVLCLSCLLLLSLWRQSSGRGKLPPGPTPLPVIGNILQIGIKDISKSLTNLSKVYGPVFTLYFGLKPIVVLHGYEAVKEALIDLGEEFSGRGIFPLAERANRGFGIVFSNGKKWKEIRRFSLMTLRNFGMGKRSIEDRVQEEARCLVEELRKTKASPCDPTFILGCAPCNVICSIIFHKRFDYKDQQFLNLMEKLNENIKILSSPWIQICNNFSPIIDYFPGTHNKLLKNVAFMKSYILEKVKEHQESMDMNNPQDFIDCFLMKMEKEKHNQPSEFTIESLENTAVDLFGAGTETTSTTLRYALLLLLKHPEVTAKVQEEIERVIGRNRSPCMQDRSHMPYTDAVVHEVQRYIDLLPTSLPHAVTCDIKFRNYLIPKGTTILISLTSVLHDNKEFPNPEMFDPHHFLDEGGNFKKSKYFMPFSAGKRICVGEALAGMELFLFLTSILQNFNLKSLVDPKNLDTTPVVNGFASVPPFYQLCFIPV

Kallikrein-7 = Kallikrein-7 (Homo sapiens, UniProt P49862); experiment: Fluorescence Intensity-based biochemical primary high throughput dose response assay to identify activators of kallikrein-7 (K7) zymogen.
Kallikrein-7, sequence (P49862 whole entry): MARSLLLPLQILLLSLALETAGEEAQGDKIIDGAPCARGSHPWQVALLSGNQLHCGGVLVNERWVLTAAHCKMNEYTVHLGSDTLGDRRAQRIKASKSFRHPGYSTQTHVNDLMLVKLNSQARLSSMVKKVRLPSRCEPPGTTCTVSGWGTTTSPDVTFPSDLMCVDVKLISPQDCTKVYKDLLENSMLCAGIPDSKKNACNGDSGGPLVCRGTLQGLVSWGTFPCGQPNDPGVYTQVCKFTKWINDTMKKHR

## CCCSC1=N/C(=C\c2ccc([N+](=O)[O-])o2)C(=O)S1
[1]
  IC50: 4.92 µM (active)
Caspase-7
  AC50: 45.9 µM (active)
[2]
  IC50: 3.88 µM (active)
Caspase-6
  AC50: 2.93 µM (active)

## Cc1nc(NC(=O)c2cccs2)ccc1Br
cells
  EC50: > 67.5 µM (inactive)
Protein skinhead-1
  IC50: 24.4 µM (active)
[3]
  EC50: > 67.5 µM (inactive)
H4
  EC50: 0.129 µM (active)
[4]
  EC50: 13.2 µM (active)

## CN1/C(=C\C(=O)c2cccs2)Sc2ccccc21
cells
  EC50: > 67.5 µM (inactive)
[3]
  EC50: > 67.5 µM (inactive)
[5]
  IC50: > 80 µM (inactive)

## COc1cccc(C(=O)C2=C(O)C(=O)N(Cc3cccnc3)C2c2ccco2)c1 (stereo unspecified)
fMet-Leu-Phe receptor
  Ki: > 66.7 µM (inactive)

## COc1ccc(-c2c(C)oc3c(CN4CCN(CCO)CC4)c(O)ccc3c2=O)cc1OC
Cytochrome P450 2C9
  AC50: 0.447 µM (inconclusive)
fMet-Leu-Phe receptor
  Ki: > 66.7 µM (inactive)

## CN(C(=O)c1cc2c(=O)n3ccccc3nc2s1)C1CCCCC1
Kallikrein-7
  EC50: 24.8 µM (inactive)

Source: ChEMBL document CHEMBL1201862, “PubChem BioAssay data set” (2004)
